Measured values published in patent EP0292169B1, “Substrates for B-galactosidase” (Bayer Corporation, priority 1987, dated 1988).
Where two headings read alike, the source gives them in different places. Values belong to the molecule of their own block, whether it stands above or below them.

Key:
β-galactosidase [1] = biological target: T1, β-galactosidase (Escherichia coli, UniProt P00722); format: biochemical; conditions: for Km / V max: calculated from experimental data of Figs. 1 and 2
β-galactosidase [2] = biological target: T1, β-galactosidase; format: biochemical; conditions: antibody titration curve, Fig. 3
[3] = Molar absorptivity of phenolic precursors of substrates; format: physicochemical
Procedure: The molar absorptivity (εmax) of the phenolic precursors of several substrates of this invention were measured and calculated according to the following formula: [formula] wherein A is the absorbance; b is the path length through the sample; and c is the concentration of solute.
The molar absorptivity of the phenolic precursor of ONPG, the most commonly used prior art substrate for β-galactosidase was likewise measured and calculated for comparative purposes. The aim was to identify phenolic precursors which would provide enhanced molar absorptivity to that of ONPG.

β-galactosidase [4] = biological target: T1, β-galactosidase; conditions: available from the literature, cited from earlier work
[5] = Stability in aqueous environment; format: physicochemical

T1 sequence (P00722 2-1024): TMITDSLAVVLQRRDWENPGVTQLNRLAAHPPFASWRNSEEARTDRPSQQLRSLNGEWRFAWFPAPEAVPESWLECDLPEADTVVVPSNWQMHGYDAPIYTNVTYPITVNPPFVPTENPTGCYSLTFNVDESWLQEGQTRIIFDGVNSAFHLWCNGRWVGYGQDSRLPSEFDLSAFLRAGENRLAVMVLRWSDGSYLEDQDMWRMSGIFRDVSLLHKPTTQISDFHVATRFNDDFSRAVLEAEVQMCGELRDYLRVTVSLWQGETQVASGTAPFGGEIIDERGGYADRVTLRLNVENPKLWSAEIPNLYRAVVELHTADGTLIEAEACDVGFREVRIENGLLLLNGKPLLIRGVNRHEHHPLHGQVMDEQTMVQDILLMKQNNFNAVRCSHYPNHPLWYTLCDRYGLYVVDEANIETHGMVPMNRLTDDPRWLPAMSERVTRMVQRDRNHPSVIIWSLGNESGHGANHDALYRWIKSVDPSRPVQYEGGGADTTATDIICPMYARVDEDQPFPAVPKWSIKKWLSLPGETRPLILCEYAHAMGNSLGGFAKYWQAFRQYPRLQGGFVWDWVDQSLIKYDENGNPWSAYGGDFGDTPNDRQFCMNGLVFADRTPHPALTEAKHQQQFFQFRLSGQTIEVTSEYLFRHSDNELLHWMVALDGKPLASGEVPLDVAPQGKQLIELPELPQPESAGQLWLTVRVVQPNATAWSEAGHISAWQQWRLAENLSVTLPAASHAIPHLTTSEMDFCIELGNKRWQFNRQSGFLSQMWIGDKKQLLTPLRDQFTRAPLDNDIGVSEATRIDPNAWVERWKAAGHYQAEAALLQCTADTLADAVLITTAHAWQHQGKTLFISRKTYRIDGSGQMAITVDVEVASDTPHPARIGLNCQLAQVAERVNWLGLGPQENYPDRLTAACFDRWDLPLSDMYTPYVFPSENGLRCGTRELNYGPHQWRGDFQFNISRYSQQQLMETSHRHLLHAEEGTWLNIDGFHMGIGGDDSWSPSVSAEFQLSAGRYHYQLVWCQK

Molecule: O=[N+]([O-])c1ccc(O[C@@H]2O[C@H](CO)[C@H](O)[C@H](O)[C@H]2O)c(Cl)c1 [CLNPG, 2-chloro-4-nitrophenyl-β-D-galactopyranoside]
V max relative to that of ONPG (β-galactosidase [1]; CLNPG versus ONPG): at least four times
Km (β-galactosidase [1]): 200 µM
V max (β-galactosidase [1]): 0.13 ΔA/Min
increase in assay sensitivity over ONPG (β-galactosidase [2]): four-fold

Molecule: bromocresol purple-β-D-galactopyranoside [BCPG, reference compound]
V max (β-galactosidase [1]): 0.11 ΔA/Min
Km (β-galactosidase [1]; read-out: Km): 8000 µM

Molecule: O=[N+]([O-])c1ccc(O)c(Cl)c1 [CLNP, 2-chloro-4-nitrophenol]
Molar Absorptivity (εmax) ([3]; 405 nm, pH 7.5): 16.9 (405 nm, pH 7.5)

Molecule: O=[N+]([O-])c1ccccc1O[C@@H]1O[C@H](CO)[C@H](O)[C@H](O)[C@H]1O [ONPG, O-nitrophenyl-β-D-galactopyranoside]
V max (β-galactosidase [4]): 0.03 ΔA/Min
Km (β-galactosidase [4]; read-out: Km): 170 µM

Molar Absorptivity (εmax) ([3]; 575 nm, pH 8.5): 8.4 (575 nm, pH 8.5)
Molecule: Cc1cc(O)ccc1C1(c2ccc(O)cc2C)OS(=O)(=O)c2ccccc21 [metacresol purple]

Molecule: O=[N+]([O-])c1ccc(O[C@@H]2O[C@H](CO)[C@H](O)[C@H](O)[C@H]2O)c([N+](=O)[O-])c1 [DNPG, 2,4-dinitro-phenyl-β-D-galactopyranoside]
stability in aqueous environment [5]: unstable
Km (β-galactosidase [4]): 220 µM
V max (β-galactosidase [4]): 0.13 ΔA/Min

Molecule: O=[N+]([O-])c1ccc(O)c([N+](=O)[O-])c1 [DNP, 2,4-dinitro phenol]
Molar Absorptivity (εmax) ([3]; pH 7.5): 10.7 (405 nm, pH 7.5)

Molar Absorptivity (εmax) ([3]; 585 nm, pH 8.5): 50.7 (585 nm, pH 8.5)
Molecule: Cc1cc(C2(c3cc(C)c(O)c(Br)c3)OS(=O)(=O)c3ccccc32)cc(Br)c1O [bromocresol purple]

Molecule: O=[N+]([O-])c1ccccc1O [ONP, orthonitro phenol, reference compound]
Molar Absorptivity (εmax) ([3]; 405 nm, pH 7.5): 3.0 (405 nm, pH 7.5)

Molecule: O=[N+]([O-])c1cccc(Cl)c1O [2-chloro-6-nitrophenol]
Molar Absorptivity (εmax) ([3]; 405 nm, pH 7.5): 4.6 (405 nm, pH 7.5)

Molecule: O=[N+]([O-])c1cc(Cl)c(O)c(Cl)c1 [2,6-dichloro-4-nitrophenol]
Molar Absorptivity (εmax) ([3]; 405 nm, pH 7.5): 15.9 (405 nm, pH 7.5)
